According to PMC9078399, “Discovery of N-cyclobutylaminoethoxyisoxazole derivatives as novel sigma-1 receptor ligands with neurite outgrowth efficacy in cells” (RSC Advances, 2018):
Entries after “also recorded” stand apart in the source; their conditions may differ.

Legend:
σ1 receptor [1] = target: T1, σ1 receptor (Cavia porcellus, UniProt Q60492); assay: Radioligand binding at σ1 receptor ([3H]-(+)-pentazocine, NIMH PDSP); parameters: species or system Guinea pig; conditions: for Ki: [3H]-(+)-pentazocine, Guinea pig brain homogenate, mean ± SEM, three independent experiments; for Selectivity (Ki σ2/Ki σ1): ratio of Ki σ2 to Ki σ1
T1 construct: σ1 receptor, [^3H]-(+)-pentazocine, Guinea pig brain homogenate; from tissue; host or cells: Guinea pig brain homogenate
T1 sequence (Q60492 whole entry): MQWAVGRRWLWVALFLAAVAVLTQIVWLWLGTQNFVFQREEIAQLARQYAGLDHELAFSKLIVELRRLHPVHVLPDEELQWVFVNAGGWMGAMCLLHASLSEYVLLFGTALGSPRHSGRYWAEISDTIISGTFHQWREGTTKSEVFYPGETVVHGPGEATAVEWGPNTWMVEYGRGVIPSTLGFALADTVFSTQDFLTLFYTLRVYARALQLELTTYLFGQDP
Source text: (§1) In this study, [^3H] pentazocine and [^3H]DTG (6) were used as the radioligands at σ1 and σ2 receptors. Firstly, we examined the effects of changing the substituents on the benzene ring. […] Mono-halogen substitution on the benzene ring exemplified by compounds 17–20 generally retained affinity for σ1 receptor compared with compound 7. […] The derivatives 21–25 also maintained similar high affinities for the σ1 receptor upon incorporation of two halogen atoms on the benzene ring. However, this is also accompanied with higher binding affinity to the σ2 receptor. […]. Next, we examined the effects of removing the methyl group on the basic nitrogen atom. […] […]. […] The results for the secondary amines 28 and 29 indicate that the hydrogen bond donor on basic nitrogen atom was beneficial for increased binding affinity to the σ1 receptor.
(§2) Radioligand competition studies were carried out by the National Institute of Mental Health's Psychoactive Drug Screening Program, Contract #HHSN-271-2008-00025-C (NIMH PDSP). The general procedures are listed as follows:
(§3) All the test compounds solution (1 mg mL^−1) were prepared by dissolving in DMSO or buffer solvent (50 mM Tris–HCl, pH = 8.0). The filter-mats were presoaked in 0.5% aqueous polyethyleneimine solution for 2 h at rt before use. All binding experiments were carried out in poly-L-lysine-coated 96-well plate and the final test concentration (50 μM, 5 μM, 1.5 μM, 500 nM, 150 nM, 50 nM, 15 nM, 5 nM, 1.5 nM, 0.5 nM, 0.05 nM) were prepared by addition of Tris–HCl solution (50 mM, pH = 8.0). The following specific radioligands and tissue source were used: (a) σ1 receptor, [^3H]-(+)-pentazocine, Guinea pig brain homogenate; (b) σ2 receptor, [^3H]-DTG, PC-12 cells. 100 μL of corresponding radioligand solution, 100 μL test compound solution and 50 μL of the respective receptor preparation into each well of the plate (total volume 250 μL). During the incubation, the plates were shaken at a speed of 500–600 rpm at the specified temperature (σ1 receptor, 37 °C, 150 min; σ2 receptor, rt, 120 min). The incubation was followed by a rapid vacuum filtration through Whatman GF/B glass filters, and the filtrates were washed twice with 10 mL of cold buffer and transferred to the 6 mL scintillation vials. EcoScint scintillation fluid (4.0 mL) was added, and the radioactivity bound was measured using a Beckman LS 6500 liquid scintillation counter. All experiments were performed at least three times.
(§4) For experimental details please refer to the PDSP website http://pdsp.med.unc.edu/.[28]

σ2 receptor [2] = target: T2, σ2 receptor (Rattus norvegicus, UniProt Q5U3Y7); assay: Radioligand binding at σ2 receptor ([3H]-DTG, NIMH PDSP); conditions: for Ki: [3H] DTG, PC12 cells, mean ± SEM, three independent experiments; for Increase of binding affinity for σ2 receptor relative to compound 7: compared with parent compound 7
T2 construct: (b) σ2 receptor, [^3H]-DTG, PC-12 cells; endogenous in cells; host or cells: PC-12 cells
T2 sequence (Q5U3Y7 1-176): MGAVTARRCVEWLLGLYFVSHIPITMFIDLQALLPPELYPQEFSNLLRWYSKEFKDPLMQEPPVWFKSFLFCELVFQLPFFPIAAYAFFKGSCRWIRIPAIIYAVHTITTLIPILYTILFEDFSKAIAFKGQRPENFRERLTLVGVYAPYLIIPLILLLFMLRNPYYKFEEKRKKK
Source text: as §1, §2, §3, §4

N1E-115 neuronal cells = assay: Neurite outgrowth in N1E-115 cells; format: cell-based, mouse; conditions: 10 μM in DMSO, four days, vs. vehicle (DMSO)
Protocol: Following the radioligand binding studies and CNS MPO calculations, all of the synthesized derivatives were further tested in cellular neuritogenesis studies. In this study, N1E-115 neuronal cells were used as a screening platform for assessing the neuritogenesis effects of candidate compounds.[31,32] All the derivatives and positive control (compound 7 and RC-33) were assessed at 10 μM concentration in DMSO, and vehicle group using DMSO alone.
N1E-115 cells, the mouse neuroblastoma cell lines, were obtained from the American Type Culture Collection (ATCC, Manassas, VA, USA). Undifferentiated N1E115 cells were cultured in DMEM complete medium with 10% fetal bovine serum, 100 U mL^−1 of penicillin, and 100 μg mL^−1 of streptomycin and maintained at 37 °C in a humidified incubator supplemented with 5% CO2. N1E-115 cells were seeded at a density of 1 × 10^4 cells per mL on poly-L-lysine-coated 96-well plates and grown with DMSO or different tested compounds (10 μM) in DMSO solution for four days. Four days after incubation, morphometric analysis was performed on digitized images of live cells taken under phase contrast illumination with an inverted microscope linked to a camera. Images of five fields per well were taken with an average of 100 cells per field. Cells that had at least one neurite with a length that was twice as long as the body diameter were expressed as a percentage of the total cells in the field. The counting was performed in a blinded manner. All experiments were performed at least five times.

[3] = target: DAT: dopamine transporter (Homo sapiens, UniProt Q01959); assay: Radioligand binding at DAT ([3H] WIN35428)
Chain of DAT: dopamine transporter (Q01959 whole entry): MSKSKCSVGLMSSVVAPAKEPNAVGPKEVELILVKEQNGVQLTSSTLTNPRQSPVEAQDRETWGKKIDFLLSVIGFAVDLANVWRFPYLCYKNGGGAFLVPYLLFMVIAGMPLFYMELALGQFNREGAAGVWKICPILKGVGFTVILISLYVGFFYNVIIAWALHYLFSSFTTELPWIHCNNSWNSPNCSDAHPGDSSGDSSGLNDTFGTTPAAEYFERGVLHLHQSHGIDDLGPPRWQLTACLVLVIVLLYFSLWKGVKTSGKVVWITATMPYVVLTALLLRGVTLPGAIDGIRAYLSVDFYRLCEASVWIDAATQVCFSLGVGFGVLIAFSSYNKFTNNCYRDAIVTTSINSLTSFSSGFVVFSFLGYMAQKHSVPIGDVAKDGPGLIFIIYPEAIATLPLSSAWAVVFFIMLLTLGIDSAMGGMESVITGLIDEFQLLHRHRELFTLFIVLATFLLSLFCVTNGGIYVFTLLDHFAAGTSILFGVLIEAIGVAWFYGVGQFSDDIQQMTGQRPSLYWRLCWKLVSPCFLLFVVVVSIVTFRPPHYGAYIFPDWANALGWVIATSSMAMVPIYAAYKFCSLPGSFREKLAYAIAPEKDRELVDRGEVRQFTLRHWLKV
Protocol: (§5) In order to exclude the potential interference of other receptor pathways to the observed neuritogenesis efficacy, we assessed the binding affinities of compounds 7, 18, 22, 24, 25, 28 and 29 at the biogenic amine transporters (NET, DAT, and SERT).
as §2, §4

[4] = target: NET: norepinephrine transporter (Homo sapiens, UniProt P23975); assay: Radioligand binding at NET ([3H] nisoxetine)
Chain of NET: norepinephrine transporter (P23975 whole entry): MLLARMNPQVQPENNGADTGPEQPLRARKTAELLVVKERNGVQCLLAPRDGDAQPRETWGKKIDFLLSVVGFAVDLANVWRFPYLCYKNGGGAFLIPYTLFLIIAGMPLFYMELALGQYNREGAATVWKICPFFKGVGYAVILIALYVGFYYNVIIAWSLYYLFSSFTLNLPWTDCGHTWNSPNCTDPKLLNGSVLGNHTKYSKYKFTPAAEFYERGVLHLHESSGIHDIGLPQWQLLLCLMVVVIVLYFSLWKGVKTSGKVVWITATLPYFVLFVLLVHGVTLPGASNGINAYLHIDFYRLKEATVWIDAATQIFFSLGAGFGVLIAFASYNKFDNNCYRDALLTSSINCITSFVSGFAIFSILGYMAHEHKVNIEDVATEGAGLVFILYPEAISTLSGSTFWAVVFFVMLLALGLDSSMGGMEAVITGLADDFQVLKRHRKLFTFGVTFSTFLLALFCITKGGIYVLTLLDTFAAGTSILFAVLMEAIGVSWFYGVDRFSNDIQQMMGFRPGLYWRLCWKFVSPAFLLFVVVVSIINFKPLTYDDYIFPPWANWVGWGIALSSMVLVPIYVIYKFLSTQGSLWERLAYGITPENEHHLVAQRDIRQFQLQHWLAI
Protocol: as §5, §2, §4

σ1 receptor [5] = target: σ1 receptor; parameters: method as in PMID 21278085, PMID 15170821, PMID 18647636, PMID 22935988, PMID 21967807; conditions: representative σ1 receptor ligands, Fig. 1; cited from earlier work
σ2 receptor [6] = target: σ2 receptor; parameters: method as in PMID 21278085, PMID 15170821, PMID 18647636, PMID 22935988, PMID 21967807; conditions: representative σ1 receptor ligands, Fig. 1; cited from earlier work

Structure (SMILES) | Ki (σ1 receptor [1]) [nM] | Selectivity (Ki σ2/Ki σ1) (σ1 receptor [1]) | Ki (σ2 receptor [2]) [nM] | Neurite outgrowth (neuritogenesis) effect (N1E-115 neuronal cells) | Decrease of affinity for σ1 receptor relative to compound 7 (σ1 receptor [1]; compared with parent compound 7) [fold] | Ki [3] [nM] | Increase of binding affinity for σ2 receptor relative to compound 7 (σ2 receptor [2]) | Ki [4] [nM] | Ki (σ1 receptor [5]) [nM] | Ki (σ2 receptor [6]) [nM]
CN(CCOc1cc(COc2cccc(Br)c2)on1)C1CCC1.Cl [Compound 19, N-(2-((5-((3-Bromophenoxy)methyl)isoxazol-3-yl)oxy)ethyl)-N-methylcyclobutanamine hydrochloride] | 0.8 ± 0.1 | 131 | 105 ± 21 | – | – | – | – | – | – | –
CN(CCOc1cc(COc2cccc(C(F)(F)F)c2)on1)C1CCC1.Cl [Compound 26, N-Methyl-N-(2-((5-((3-(trifluoromethyl)phenoxy)methyl)isoxazol-3-yl)oxy)ethyl)cyclobutanamine hydrochloride] | 4 ± 1.2 | 9.5 | 38 ± 2 | better efficacy than other mono-substituted compounds | – | – | – | – | – | –
CN(CCOc1cc(COc2cc(Cl)cc(Cl)c2)on1)C1CCC1.Cl [Compound 24, N-(2-((5-((3,5-Dichlorophenoxy)methyl)isoxazol-3-yl)oxy)ethyl)-N-methylcyclobutanamine hydrochloride] | 7.8 ± 3.2 | 3.0 | 22.8 ± 11.1 | preferable neurite outgrowth effects compared to the parent compound 7 and positive control RC-33; also recorded: significant neuritogenesis effects | 4 | 1810 | more than 10 fold | 1610 | – | –
CC(CCN1CCCCC1)c1ccc(-c2ccccc2)cc1 (stereo not drawn) [RC-33] | – | – | – | – | – | – | – | – | 0.7 | 103
O=C(OCCN1CCOCC1)C1(c2ccccc2)CCCCC1 [PRE-084] | – | – | – | – | – | – | – | – | – | > 10000
C[C@H](CCN1CCCCC1)c1ccc(-c2ccccc2)cc1 [(R)-RC-33] | – | – | – | – | – | – | – | – | 1.8 | –
CN(CCOc1cc(COc2ccc(Cl)c(Cl)c2)on1)C1CCC1.Cl [Compound 23, N-(2-((5-((3,4-Dichlorophenoxy)methyl)isoxazol-3-yl)oxy)ethyl)-N-methylcyclobutanamine hydrochloride] | 3.2 ± 1.6 | 11 | 36 ± 9.7 | – | – | – | – | – | – | –
CN(CCOc1cc(COc2cccc(F)c2)on1)C1CCC1.Cl [Compound 17, N-(2-((5-((3-Fluorophenoxy)methyl)isoxazol-3-yl)oxy)ethyl)-N-methylcyclobutanamine hydrochloride] | 1.9 | 48 | 91.5 ± 7.5 | – | – | – | – | – | – | –
Cc1cccc(OCc2cc(OCCN(C)C3CCC3)no2)c1.Cl [Compound 27, N-Methyl-N-(2-((5-((m-tolyloxy)methyl)isoxazol-3-yl)oxy)ethyl)cyclobutanamine hydrochloride] | 4.2 ± 1.9 | 29.5 | 124 ± 68 | – | – | – | 3 fold | – | – | –
Cl.Clc1cccc(OCc2cc(OCCNC3CCC3)no2)c1 [Compound 29, N-(2-((5-((3-Chlorophenoxy)methyl)isoxazol-3-yl)oxy)ethyl)cyclobutanamine hydrochloride] | 0.4 ± 0.1 | 161 | 64.5 ± 13.2 | preferable neurite outgrowth effects compared to the parent compound 7 and positive control RC-33; also recorded: significant neuritogenesis effects | – | 1520 | – | 600 | – | –
CN(CCOc1cc(COc2ccc(Br)cc2)on1)C1CCC1.Cl [Compound 20, N-(2-((5-((4-Bromophenoxy)methyl)isoxazol-3-yl)oxy)ethyl)-N-methyl-cyclobutanamine hydrochloride] | 5.5 ± 1.3 | 16 | 86.6 ± 16.8 | – | – | – | – | – | – | –
CN(CCOc1cc(COc2ccc(F)cc2)on1)C1CCC1.Cl [Compound 18, N-(2-((5-((4-Fluorophenoxy)methyl)isoxazol-3-yl)oxy)ethyl)-N-methylcyclobutanamine hydrochloride] | 0.9 ± 0.1 | 87 | 78.5 ± 19.5 | preferable neurite outgrowth effects compared to the parent compound 7 and positive control RC-33; also recorded: significant neuritogenesis effects | – | 5630 | – | – | – | –
CN(CCOc1cc(COc2ccc(F)c(F)c2)on1)C1CCC1.Cl [Compound 21, N-(2-((5-((3,4-Difluorophenoxy)methyl)isoxazol-3-yl)oxy)ethyl)-N-methylcyclobutanamine hydrochloride] | 1.7 ± 0.3 | 90 | 153 ± 37 | – | – | – | – | – | – | –
CN(CCOc1cc(COc2cc(F)cc(F)c2)on1)C1CCC1.Cl [Compound 22, N-(2-((5-((3,5-Difluorophenoxy)methyl)isoxazol-3-yl)oxy)ethyl)-N-methylcyclobutanamine hydrochloride] | 2.4 ± 1.2 | 24 | 57 ± 20.1 | preferable neurite outgrowth effects compared to the parent compound 7 and positive control RC-33; also recorded: significant neuritogenesis effects | – | > 10000 | – | 2880 | – | –
Cl.c1ccc(OCc2cc(OCCN(C3CCC3)C3CCC3)no2)cc1 [Compound 30, N-Cyclobutyl-N-(2-((5-(phenoxymethyl)isoxazol-3-yl)oxy)ethyl)cyclobutanamine hydrochloride] | 16 ± 5 | 3.3 | 53.5 ± 0.5 | – | – | – | – | – | – | –
CN(CCOc1cc(COc2ccc(F)c(Cl)c2)on1)C1CCC1.Cl [Compound 25, N-(2-((5-((3-Chloro-4-fluorophenoxy)methyl)isoxazol-3-yl)oxy)ethyl)-N-methylcyclobutanamine hydrochloride] | 1.3 ± 0.4 | 25 | 32 ± 6 | preferable neurite outgrowth effects compared to the parent compound 7 and positive control RC-33; also recorded: significant neuritogenesis effects | – | > 10000 | – | 1780 | – | –
Cl.c1ccc(OCc2cc(OCCNC3CCC3)no2)cc1 [Compound 28, N-(2-((5-(Phenoxymethyl)isoxazol-3-yl)oxy)ethyl)cyclobutanamine hydrochloride] | 0.2 | 990 | 198 ± 64 | preferable neurite outgrowth effects compared to the parent compound 7 and positive control RC-33; also recorded: significant neuritogenesis effects | – | – | – | 7100 | – | –
